From patent US5665764A, “Tricyclic inhibitors of matrix metalloproteinases” (Warner-Lambert Company, priority 1995, dated 1997)

Experiments:
Plasma concentrations = type: in vivo
[1] = molecular target: GCD (recombinant gelatinase A catalytic domain); assay: Inhibition of thiopeptolide substrate conversion by GCD; type: biochemical; settings: thiopeptolide substrate Ac-Pro-Leu-Gly-thioester-Leu-Leu-Gly-OEt
Description: Matrix metalloproteinases share high sequence hemology and the catalytic domains of each of the MMPs can be identified by sequence alignment. The gene for the catalytic domain of stromelysin-1, SCD, was constructed by removing the propeptide and C-terminal domain (Ye Q.-Z., Johnson L. L, Hupe D. J., and Baragi V., "Purification and Characterization of the Human Stromelysin Catalytic Domain Expressed in Escherichia coli", Biochemistry,1992;31:11231-11235). The gelatinase A catalytic domain, GCD, was similarly constructed with the additional removal of the fibronectin-like insert which interrupts the catalytic domain (Ye Q.-Z., Johnson L. L., Yu A. E., and Hupe D., "Reconstructed 19 kDa Catalytic Domain of Gelatinase A is an Active Proteinase", Biochemistry, 1995;34:4702-4708). Both truncated proteins cleave synthetic peptide substrates and the natural substrates proteoglycan and gelatin in a manner similar to the full-length enzymes and can be used to identify matrix metalloproteinase inhibitors.
Experiments were carried out with both the full-length enzymes and the catalytic domains. […] IC50 values were determined using a thiopeptolide substrate, Ac-Pro-Leu-Gly-thioester-Leu-Leu-Gly-OEt (Ye Q.-Z., Johnson L. L., Hupe D. J., and Baragi V., "Purification and Characterization of the Human Stromelysin Catalytic Domain Expressed in Escherichia coli", Biochemistry,1992;31:11231-11235). […]

[2] = tested on: Mycobacterium footpad edema; assay: Mycobacterium footpad edema assay (MFE); type: in vivo, male Wistar rats; settings: daily, third day, statistically significant
Experimental: The activity of Example 2 as a general inhibitor of inflammation was tested using the Mycobacterium footpad edema assay (MFE) in Wistar rats. Compound was administered daily by gavage at 2 mg/kg, 10 mg/kg, or 50 mg/kg.
Male outbred Wistar rats (110-125 g, Charles River Labs, Portage, Mich.) were used in this study. Rats were housed for a minimum of 1 week before use. Food and water were supplied ad libitum. Foot pad edema was induced following the method described by Martel R. R. and Klicius J., "Comparisons in rats of the anti-inflammatory and gastric irritant effects of etodolac with several clinically effective antiinflammatory drugs", Agents and Actions, 1982;12:295. Briefly, male Wistar rats were injected subcutaneously into the right hind footpad with 0.1 mL of 5 mg/mL suspension of killed and dried Mycobacterium butyricum (Difco, Detroit, Mich.) in liquid paraffin. Compound was suspended in 0.5% hydroxypropylmethylcellulose (HPMC) containing 0.2% Tween-80 and administered orally 1 hour before injection. Subsequent doses of the compound were given 24 and 48 hours after the Mycobacterium. Control animals were given vehicle alone. Swelling was assessed on the third day by subtracting the initial volume (determined immediately following the Mycobacterium injection) from the final volume of the treated paw. Paw volume was determined by mercury plethysmography. The percent inhibition of edema achieved in each compound-treated group was determined by comparison with swelling in the vehicle-treated group and the ID50 values were determined by regression analysis. Statistical significance between experimental groups was evaluated using a Student's t-test.

[3] = tested on: experimental allergic encephalomyelitis (EAE); assay: EAE Lewis rat acute model, Protocol 1 (daily oral dosing); type: in vivo, female Lewis rats
Experimental: (§1) The activity of Example 2 in suppressing the inflammatory disease associated with EAE was tested using the Lewis rat acute model. Female Lewis rats were purchased from Harlan Sprague-Dawley (Indianapolis, Ind.) and were used at 8 to 10 weeks of age. Active EAE was induced by injection of 0.05 mL emulsion of myelin basic protein (MBP) with complete Freund's adjuvant (CFA), containing 25 μg guinea pig MBP and 100 μg Mycobacterium butyricum (Difco Laboratories, Detroit, Mich.) into one hind footpad. Immunized rats were observed daily for clinical signs of EAE and scored as follows: 0, no symptoms; 1, loss of tail tonicity; 2, paresis; 3, hind limb paralysis, often accompanied by incontinence; and 4, death. Formalin-fixed brain slice sections were stained with hematoxylin-eosin and evaluated microscopically for perivascular and parenchymal infiltration. Compound was administered by gavage as a solution in sterile saline in a volume of 500 μL. The dose of 50 mg/kg typically required 7.5 mg of compound per rat. Several different protocols were used to define the efficacy and timing retirements for potency.
Protocol 1: Compound was administered daily at 50 mg/kg beginning on Day 0 and continuing through Day 14, with MBP in CFA administered on Day 0 also. […] The percentage of animals responding is also very high with 100% of treated animals-showing either a total inhibition of symptoms (80%) or reduction of symptoms (20%). N=5 for all groups.

[4] = tested on: leukocyte migration across the blood-brain barrier; assay: Histology of brain slices from EAE rats, Protocol 1; type: in vivo, Lewis rat; settings: 50 mg/kg daily
Experimental: as §1

[5] = tested on: experimental allergic encephalomyelitis (EAE); assay: EAE Lewis rat acute model, Protocol 2 (alternate day dosing); type: in vivo, female Lewis rats; settings: for Effect on EAE Rats (≥ Paresis/Total): CFA + MBP, PBS control 5/7
Experimental: as §1
Protocol 2: To determine whether less frequent dosing or dosing at lower levels was still effective at suppressing EAE, compound was administered at either 50 mg/kg or at 10 mg/kg on Day 0 and on alternate days through Day 14. […] Controls run in parallel included CFA only and MBP in CFA. N=4 for treatment groups. N=8 for controls.

[6] = tested on: experimental allergic encephalomyelitis (EAE); settings: dose dependent; Gijbels et al. 1994; cited from earlier work
[7] = tested on: bovine nasal and pig articular cartilage; settings: Andrews et al. 1992; Ellis et al. 1994; cited from earlier work

**Q.** With `O=C(O)CCC(=NO)c1ccc2oc3ccccc3c2c1` [Example 2, 4-Dibenzofuran-2-yl-4-hydroximino-butyric acid] as the compound, how does the “Cmax and AUC(0-b 4) versus dose” value (Plasma concentrations; 2, 10, 50 mg/kg) read?
**A.** Its value is “increase proportionately with dose”.

**Q.** What about the “bioavailability versus effective range in vitro” value (Plasma concentrations; effective range of gelatinase A and stromelysin-1 inhibition in the in vitro assays) of the same compound?
**A.** Its value is “well in excess of the effective range of gelatinase A and stromelysin-1 inhibition”.

**Q.** And the IC50 [1]?
**A.** Its IC50 is 40 nM.

**Q.** What about the “% Inhibition of Swelling” value ([2]; 2 mg/kg oral) of the same compound?
**A.** Its value is 23%.

**Q.** What about the “% Inhibition of Swelling” value ([2]; 10 mg/kg oral) of the same compound?
**A.** Its value is 27%.

**Q.** What about the “% Inhibition of Swelling” value ([2]; 50 mg/kg oral) of the same compound?
**A.** Its value is 40%.

**Q.** What about the “effect on average scores for the treated group” value ([3]; 50 mg/kg daily, Day 0-14) of the same compound?
**A.** The value was “substantially reduced the average scores”.

**Q.** What about the “treated animals showing either a total inhibition of symptoms or reduction of symptoms” value ([3]; 50 mg/kg daily, Day 0-14, N=5) of the same compound?
**A.** Its value is 100%.

**Q.** What about the “Day of Peak” value ([3]; CFA + MBP, 50 mg/kg daily oral from Day 0) of the same compound?
**A.** Its value is 12 days.

**Q.** And the “Clinical Grade at Peak of Disease Expression” value ([3]; CFA + MBP, 50 mg/kg daily oral from Day 0, N=5, SD 1.22, PBS control 3.0)?
**A.** The value was 1.0.

**Q.** And the “Effect on EAE Rats (≥ Paresis/Total)” value ([3]; CFA + MBP, 50 mg/kg daily oral from Day 0, PBS control 5/5)?
**A.** The value was 1/5.

**Q.** And the “Effect on EAE Rats (≥ Paresis/Total)” value ([3]; CFA without MBP, 50 mg/kg daily oral from Day 0)?
**A.** Its value is 0/5.

**Q.** What about the “Clinical Grade at Peak of Disease Expression” value ([3]; CFA without MBP, 50 mg/kg daily oral from Day 0, N=5, SD 0) of the same compound?
**A.** The value was 0.

**Q.** And the CNS inflammation [4]?
**A.** Its CNS inflammation is “little CNS inflammation”.

**Q.** What about the cuff formation [4] of the same compound?
**A.** The cuff formation was “no cuff formation”.

**Q.** What about the “leukocyte migration across the blood-brain barrier” value [4] of the same compound?
**A.** The value was “completely prevented”.

**Q.** What about the “Effect on EAE Rats (≥ Paresis/Total)” value ([5]; 10 mg/kg alternate days) of the same compound?
**A.** The value was 0/4.

**Q.** And the “Effect on EAE Rats (≥ Paresis/Total)” value ([5]; 50 mg/kg alternate days)?
**A.** The value was 0/4.

**Q.** What about the “decrease in disease severity, significance” value ([5]; Day 15, p≤0.01, 10 or 50 mg/kg alternate days) of the same compound?
**A.** The value was “highly significant”.

**Q.** With `CNC(=O)[C@H](Cc1c[nH]c2ccccc12)NC(=O)[C@@H](CC(=O)NO)CC(C)C` [GM6001] as the compound, how does the “clinical expression/development of EAE” value [6] read?
**A.** Its value is “suppressed the development or reversed the clinical expression”.

**Q.** With “TIMP-1: natural endogenous inhibitors of MMPs (TIMPs)” as the compound, how does the “formation of collagen fragments” value [7] read?
**A.** Its value is “prevented the formation of collagen fragments”.
